In patent US10718772B2, “Method of detection of analyte active forms and determination of the ability of substances to bind into analyte active sites” (USTAV ORGANICKE CHEMIE A BIOCHEMIE AKADEMIE VED CR, V.V.I., priority 2014, dated 2020):
{C7NH2-Cpd13} = 6-amino-2-(hydroxymethyl)hexyl phosphate carrying Compound 13; {C6NH2-Cpd13} = 6-aminohexyl phosphate carrying Compound 13; {AmHex} = 6-amino-2-(hydroxymethyl)hexyl phosphate

Experiments:
[1] = biological target: T1, HIV-1 protease (Human immunodeficiency virus type 1 group M subtype B, UniProt P04585); test: HIV-1 protease enzyme kinetics with chromogenic peptide substrate; format: biochemical
T1 construct: made in house

[2] = biological target: T1, HIV-1 protease; test: ssHIV1 probe assay, HIV-1 protease directly adsorbed on solid carrier, qPCR; format: binding; conditions: pH 6.0
[3] = biological target: T1, HIV-1 protease; test: ssHIV1 probe assay, HIV-1 protease bound to immobilized polyclonal antibody, qPCR; format: binding
[4] = biological target: CA-IX (Homo sapiens, UniProt Q16790, N346D); test: Reference enzyme kinetics of CA-IX (construct without PG domain)
[5] = biological target: T2, CA-IX contained in a cell lysate of line HT-29 (Homo sapiens, UniProt Q16790); test: Bivalent ssCAbis probe assay, CA-IX from HT-29 cell lysate on M75 antibody, qPCR; format: binding
T2 construct: unpurified endogenous CA-IX contained in a cell lysate or in microliter volumes of serum; endogenous in cells; host or cells: HT-29
Protocol: (§1) Following the procedure described in the preceding examples, approximately 80 pg of CA-IX contained in a cell lysate of line HT-29 (used amount of total protein determined by Bradford assay was 1 μg) was immobilized using the M75 antibody.

[6] = biological target: T3, Avi-PSMA (Homo sapiens, UniProt Q04609); test: Enzyme kinetics of Avi-PSMA (HPLC, cleavage of pteroyl-bis-L-glutamate); format: biochemical
T3 construct: Biotinylated extracellular portion of PSMA (hereinafter called Avi-PSMA) used in the enzyme assay; made in house
T3 sequence (Q04609 44-750 limits assumed): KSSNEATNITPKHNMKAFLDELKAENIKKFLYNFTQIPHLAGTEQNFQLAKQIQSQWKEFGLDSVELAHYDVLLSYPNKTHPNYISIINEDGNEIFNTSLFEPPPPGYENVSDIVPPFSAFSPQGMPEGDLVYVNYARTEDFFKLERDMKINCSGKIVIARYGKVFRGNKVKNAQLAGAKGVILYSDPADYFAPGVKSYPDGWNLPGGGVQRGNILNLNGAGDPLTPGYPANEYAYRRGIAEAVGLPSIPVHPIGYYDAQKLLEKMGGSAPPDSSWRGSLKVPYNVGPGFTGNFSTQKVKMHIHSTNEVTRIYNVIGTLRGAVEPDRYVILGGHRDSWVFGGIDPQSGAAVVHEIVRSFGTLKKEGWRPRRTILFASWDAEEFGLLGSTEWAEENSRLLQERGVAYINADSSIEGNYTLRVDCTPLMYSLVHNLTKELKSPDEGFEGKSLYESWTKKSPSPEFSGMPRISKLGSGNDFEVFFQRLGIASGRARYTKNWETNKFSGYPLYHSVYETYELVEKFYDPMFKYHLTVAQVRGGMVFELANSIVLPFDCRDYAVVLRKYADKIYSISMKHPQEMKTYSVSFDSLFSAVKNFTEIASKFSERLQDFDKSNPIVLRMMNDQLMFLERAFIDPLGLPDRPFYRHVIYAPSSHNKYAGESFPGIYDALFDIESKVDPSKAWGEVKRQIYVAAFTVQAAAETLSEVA

[7] = biological target: T3, Avi-PSMA; test: PSMA catalytic activity for substrate hydrolysis by dsA3PSMA probe displacement, qPCR; format: biochemical; conditions: for substrate cleaved during incubation: 40 minutes
Protocol: Following the procedure described in section 1i, 20 pg of Avi-PSMA was immobilized to the bottom of the wells via immobilized neutravidin and subsequently incubated with the dsA3PSMA detection probe at a concentration of 35 pmol·l^−1 and simultaneously with various concentrations of the folyl-γ-L-glutamate substrate in the range of 10 nmol·l^−1 to 100 μmol·l^−1 for 40 minutes, and after washing, the amount of bound probe was determined with qPCR. […] At a concentration of 336 nmol·l^−1, 43% was cleaved, corresponding to kcat of 2.3 s^−1 and at a concentration of 1049 nmol·l^−1, 16% was cleaved, corresponding to kcat of 2.6 s^−1. Obtained kcat values are in conformity with the kcat value of 5 s^−1 obtained from enzyme kinetics as described in Section 1c.

[8] = biological target: T4, CA-IX from blood serum (Homo sapiens, UniProt Q16790); test: Bivalent ssCAbis probe assay, CA-IX from blood serum on M75 antibody, qPCR; format: binding; conditions: CA-IX from 1 μl of blood serum
T4 construct: unpurified endogenous CA-IX contained in a cell lysate or in microliter volumes of serum; from tissue; host or cells: human blood serum
Protocol: as §1

[9] = first independent experiment, read-out: Ki (1)
[10] = second independent experiment, read-out: Ki (2)
[11] = initial concentration 107 nmol·l^−1
[12] = initial concentration 336 nmol·l^−1
[13] = initial concentration 1049 nmol·l^−1

Row | Compound | Ki [1] [nM] | Ki [2, 9] [nM] | Ki [2, 10] [nM] | Ki [3] [nM] | other results
1 | Cc1nc(COc2ccc(C[C@H](NC(=O)O[C@H]3CO[C@H]4OCC[C@H]43)[C@H](O)CN(CC(C)C)S(=O)(=O)c3ccc4c(c3)OCO4)cc2)cs1 [brecanavir] | 0.001 | 0.04 | 0.05 | 0.41 | –
2 | NS(=O)(=O)c1ccc(NC(=O)Nc2ccc(OCCCCNC(=O)CCOCCOCCOCCOCCOCCC(=O)ON3C(=O)CCC3=O)cc2)cc1 [Compound 13, 2,5-dioxopyrrolidin-1-yl 19-oxo-24-(4-(3-(4-sulfamoylphenyl)ureido)phenoxy)-4,7,10,13,16-pentaoxa-20-azatetracosan-1-oate] | – | – | – | – | Ki [4]: ~400 nM
3 | NCCOCCOCCOCCOCCOCCC(=O)NCCCCOc1ccc(NC(=O)Nc2ccc(S(N)(=O)=O)cc2)cc1 [Compound 14, 18-oxo-23-(4-(3-(4-sulfamoylphenyl)ureido)phenoxy)-3,6,9,12,15-pentaoxa-19-azatri-cosan-1-aminium 2,2,2-trifluoroacetate] | – | – | – | – | Ki ([5]; ssCAbis probe, determined in the same way as Table 15, read-out: inhibitory constant): 300 nM
4 | COC(=O)N[C@H](C(=O)N[C@@H](Cc1ccccc1)[C@@H](O)CN(Cc1ccc(-c2ccccn2)cc1)NC(=O)[C@@H](NC(=O)OC)C(C)(C)C)C(C)(C)C [atazanavir] | 0.024 | 0.11 | 0.18 | 1.4 | –
5 | CCC[C@@]1(CCc2ccccc2)CC(O)=C([C@H](CC)c2cccc(NS(=O)(=O)c3ccc(C(F)(F)F)cn3)c2)C(=O)O1 [tipranavir] | 0.14 | 1.3 | 2.9 | 14 | –
6 | Nc1nc2ncc(CNc3ccc(C(=O)N[C@@H](CCC(=O)N[C@@H](CCC(=O)O)C(=O)O)C(=O)O)cc3)nc2c(=O)[nH]1 [folyl-γ-L-glutamate] | – | – | – | – | kcat from enzyme kinetics ([6]; as described in Section 1c): 5 s⁻¹; kcat [7, 11]: 1.2 s⁻¹; substrate cleaved during incubation [7, 11]: 80%; kcat [7, 12]: 2.3 s⁻¹; substrate cleaved during incubation [7, 12]: 43%; kcat [7, 13]: 2.6 s⁻¹; substrate cleaved during incubation [7, 13]: 16%
7 | O=C(O)CCC(NC(=O)NC(CCCCNC(=O)CCOCCC(=O)NCCO)C(=O)O)C(=O)O (centres unmarked) [Compound 4, 1-hydroxy-4,10,18-trioxo-7-oxa-3,11,17,19-tetraazadocosane-16,20,22-tricarboxylic acid] | – | – | – | – | Ki ([6]; Avi-PSMA, IC50 converted by Cheng-Prusoff, pH 7.4, 37° C.): 3.3 nM
8 | ssCAbis: bivalent probe: two molecules of Compound 13 on oligonucleotide SEQ ID NO: 7 (DNA AAACCTGCCAGTTGAGCATTTTTATCTGCCACCTTCTCCACCAGACAAAAGCTGGAAA; 5' {C6NH2-Cpd13}, 3' {C7NH2-Cpd13}, sugars by position and backbone not given here) | – | – | – | – | Kd ([5]; HT-29 lysate, HEPESTC′ buffer): 2.1 nM; Kd [8]: 2.2 nM
9 | CC(C)[C@H](NC(=O)CCOCCOCCOCCOCCOCCC(=O)NCCO)C(=O)N[C@@H](Cc1ccccc1)C[C@H](O)[C@H](Cc1ccccc1)NC(=O)OCc1cncs1 [Compound 8, thiazol-5-ylmethyl ((24S,27S,29S,30S)-27-benzyl-1,29-dihydroxy-24-isopropyl-4,22,25-trioxo-31-phenyl-7,10,13,16,19-pentaoxa-3,23,26-triazahentriacontan-30-yl)carbamate] | 2.3 | – | – | – | –
10 | iqPCR_amino: single-stranded DNA (SEQ ID NO: 1) with 3′-terminal 6-amino-2-(hydroxymethyl)hexyl phosphate modification, no ligand portion (DNA CCTGCCAGTTGAGCATTTTTATCTGCCACCTTCTCCACCAGACAAAAGCTGGAAA; DNA, 3' {AmHex}, backbone not given here) | – | – | – | – | inhibition at the highest concentration used ([6]; 0.5 μmol·l^−1): no inhibition observed; binding to immobilized HIV-1 protease ([3]; 100 ng of HIV-1 protease): no binding was observed
11 | NCCCC[C@H](NC(=O)N[C@@H](CCC(=O)O)C(=O)O)C(=O)O [PSMA parent compound, S,S-2-[3-[5-amino-1-carboxypentyl]-ureido]-pentanedioic acid] | – | – | – | – | Ki ([6]; Avi-PSMA enzyme assay): 0.2 nM
12 | Cc1cccc(C)c1OCC(=O)N[C@@H](Cc1ccccc1)[C@@H](O)C[C@H](Cc1ccccc1)NC(=O)[C@H](C(C)C)N1CCCNC1=O [lopinavir] | 0.018 | 0.18 | 0.41 | 1.3 | –
